Source: patent US20190282616A1, “MACROPHAGES REDIRECT PHAGOCYTOSIS BY NON-PROFESSIONAL PHAGOCYTES AND INFLUENCE INFLAMMATION” (University of Virginia Patent Foundation, priority 2016, published 2019)

Tests used:
[1] = tested on: 16HBE14o- human airway epithelial cells; assay: In vitro engulfment assay: apoptotic thymocyte uptake by 16HBE14o- cells; format: cell-based; settings: IGF-1 treatment
Description: (§1) LR73, SVEC-40, BEAS-2B, and 16HBE14o-cells were seeded in a 24 well plate. Thymocytes were isolated from 4-6 week old mice and induced to undergo apoptosis with dexamethasone. Thymocytes or prepared microvesicles were then stained with either CypHer5E (GE Healthcare, PA15401) or TAMRA (Invitrogen, C-1171). LR73 and SVEC-40 cells were incubated with apoptotic thymocytes at a 1:10 phagocyte to target ratio, BEAS-2B at a 1:5 phagocyte to target ratio, and 16HBE14o—at a 1:20 phagocyte to target ratio for 2 hours. Mouse IGF-I (Sigma-Aldrich), human IGF-I (Sigma-Aldrich), human IGF-II (Sigma-Aldrich) were added to the phagocytes at the same time as addition of apoptotic targets. For IGFBP3 studies, IGFBP3 (Sigma-Aldrich) was added to media or supernatant from J774 cells for one hour to allow IGFBP3 to bind to any available IGF-I, then the mix is added to phagocytes along with apoptotic targets. […] Targets were then washed off three times with PBS, and the cells were dissociated from the plate with trypsin and the engulfment assessed by flow cytometry.

[2] = tested on: bone marrow derived macrophages; assay: Apoptotic cell engulfment by bone marrow derived macrophages; format: cell-based, mouse; settings: even with supra-physiological concentrations of IGF-1
Description: (§2) To obtain bone-marrow derived macrophages, femurs were removed from 8 week old mice and flushed with 5 mL of sterile PBS containing 5% FBS. The cell suspension was centrifuged, treated with red blood cell lysis buffer, washed, and then plated onto sterile petri dishes in DMEM containing 10% L929 media, 10% FBS and 1% penicillin/streptomycin/glutamine (PSQ). Media was replenished every 2 to 3 days and differentiated cells were used at day 6 post-harvest. Resident peritoneal macrophages were obtained by flushing the peritoneal cavity of mice with 10 mL of cold PBS containing 5% FBS. Collected cells were spun down, resuspended in X-VIVO 10 (Lonza) and plated at a concentration of 3×10^5 cells per well in a 24 well plate for IGF-1 secretion assays, and 5×10^5 per well in a 24 well plate for engulfment assays. Floating cells were washed the next day and remaining peritoneal macrophages were used 2 days after isolation. Alveolar macrophages were isolated by flushing the lungs with 1 mL of cold PBS instilled intratracheally (five flushes). Collected cells were centrifuged, resuspended in F12K media containing 10% FBS and 1% PSQ, and seeded at 1×10^5 cells per well in a 48-well plate. All floating cells were washed away the next day and remaining cells were used in assays 2 days after isolation.

BEAS-2B cells = assay: In vitro engulfment assay: apoptotic cell uptake by BEAS-2B cells; format: cell-based; settings: human IGF-I
Description: as §1

[3] = tested on: IGF-1R and Akt phosphorylation in macrophages; assay: Immunoblotting of IGF-1R and Akt phosphorylation in macrophages; format: cell-based; settings: 100 ng/mL mouse IGF-1
Description: LR73, J774, or BEAS-2B cells were seeded in a 60 mm dish at a concentration of 5×10^5. Cells were serum-starved for 6 hours and then stimulated with 100 ng/mL of IGF-1 for various time points. Cells were lysed in RIPA buffer and used in Western blots. The blots were probed for phospho-Erk1/2 (Cell Signaling Technology, #4370), phospho-Akt (Cell Signaling Technology, #4060), phospho-IGF-1R (Cell Signaling, #3024), total Erk2 (Santa Cruz Biotechnology, #sc-154-G), total Akt (Cell Signaling Technology, #4691), total IGF-1R (Cell Signaling, #9750), and anti-B-actin-HRP (Sigma-Aldrich, #A3854) followed by chemiluminescence detection.

[4] = tested on: resident peritoneal macrophages; assay: Apoptotic cell engulfment by resident peritoneal macrophages; format: cell-based, mouse; settings: even with supra-physiological concentrations of IGF-1
Description: as §2

alveolar macrophages = assay: In vivo engulfment assay: alveolar macrophages; design: species or system mouse; settings: same IGF-1 treated mice
Description: (§3) CCSP-Cre/YFP mice were administered PBS or 1 μg of IGF-1 intranasally. One hour later, 100 million CypHer5E-labelled apoptotic thymocytes with or without IGF-I were injected intranasally for 3.5 hours. The BAL fluid was harvested and the lungs excised, minced, and digested into a single cell suspension. The cells were then stained with appropriate markers: CD11c and Siglec F for alveolar macrophage markers and EpCam (along with YFP expression) for airway epithelial cells and analyzed by flow cytometry to assess apoptotic cell uptake by the airway epithelial cells and the alveolar macrophages.

LR73 cells [5] = assay: In vitro engulfment assay: apoptotic thymocyte uptake by LR73 cells; format: cell-based, hamster; settings: LR73 cells pretreated with IGF-I, washed
[6] = tested on: YFP airway epithelial cells; assay: In vivo engulfment assay: airway epithelial cells; design: species or system mouse; settings: 1 μg IGF-1 intranasally
Description: as §3

IC-21 cells = assay: Apoptotic thymocyte engulfment by IC-21 cells; format: cell-based; settings: indicated concentrations of mouse IGF-1 or human insulin
LR73 cells [7] = settings: liposomes of 150-200 nm; IGF-1 50 ng/mL, EGF or VEGF 100 ng/mL each
Description: LR73, SVEC-40, BEAS-2B, and 16HBE14o-cells were seeded in a 24 well plate. Thymocytes were isolated from 4-6 week old mice and induced to undergo apoptosis with dexamethasone. Thymocytes or prepared microvesicles were then stained with either CypHer5E (GE Healthcare, PA15401) or TAMRA (Invitrogen, C-1171). LR73 and SVEC-40 cells were incubated with apoptotic thymocytes at a 1:10 phagocyte to target ratio, BEAS-2B at a 1:5 phagocyte to target ratio, and 16HBE14o—at a 1:20 phagocyte to target ratio for 2 hours. Mouse IGF-I (Sigma-Aldrich), human IGF-I (Sigma-Aldrich), human IGF-II (Sigma-Aldrich) were added to the phagocytes at the same time as addition of apoptotic targets. For IGFBP3 studies, IGFBP3 (Sigma-Aldrich) was added to media or supernatant from J774 cells for one hour to allow IGFBP3 to bind to any available IGF-I, then the mix is added to phagocytes along with apoptotic targets. For all pharmacological studies, phagocytes were pre-incubated with the compounds listed below for one hour prior to addition of apoptotic targets: cytochalasin D (Sigma-Aldrich, C8273, 1 μM), Latrunculin A (Tocris, 3973, 150 nM), CK-666 (Tocris, 3950, 25 μM-100 μM), OSI-906 (Selleckchem, S1091, 5 nM-40 nM), NVP-AEW541 (Selleckchem, S1034, 25 nM-100 nM), Rapamycin (Sigma-Aldrich, R0395, […]), MK-2206 2HCl (Selleckchem, S1078, 10 nM-1 U0126-EtOH (Selleckchem, S1102, […]), Wortmannin (Sigma-Aldrich, W1628, 50 nM-200 nM), Y27632 (Calbiochem, 688000, 3.75 μM-15 μM), or GSK269962 (Tocris, 4009, 80 nM-2 μM). […] Targets were then washed off three times with PBS, and the cells were dissociated from the plate with trypsin and the engulfment assessed by flow cytometry.
Liposomes were prepared by dissolving the lipids (phosphatidylserine, dioleoyl phosphatidylcholine, cholesterol and the lipid DiD dye) in chloroform, evaporating chloroform under flow of argon gas in a glass vial, then subjecting the lipid layer to overnight lyophilization to remove traces of organic solvent. Then normal saline was added for hydration, and intense vortexing was preformed to prepare multilamellar vesicles (MIN). Liposomes were repeatedly filtered through a 0.2 um Nuclepore polycarbonate filter to prepare smaller particles. Particle size was verified by dynamic light scattering using Nicomp 370.

## insulin-like growth factor I [IGF-1]
[1]
  apoptotic thymocyte uptake by 16HBE14o- cells: engulfment dampening effect of IGF-1 was also seen
[2]
  corpse uptake by bone marrow-derived macrophages: did not affect corpse uptake
BEAS-2B cells
  apoptotic cell uptake by BEAS-2B cells: engulfment dampening effect of IGF-1 was also seen
[3]
  early signaling in macrophages (IGF-1R and Akt phosphorylation): initiated early signaling in macrophages
[4]
  corpse uptake by resident peritoneal macrophages: did not affect corpse uptake
Alveolar macrophages
  engulfment of apoptotic cells or liposomes by lung macrophages in vivo: unaffected in their ability to engulf these targets
LR73 cells [5]
  engulfment after washing phagocytes pre-treated with IGF-1 (reversibility): near complete restoration of engulfment
[6]; apoptotic thymocytes
  apoptotic cell engulfment by YFP airway epithelial cells in vivo: decreased apoptotic cell engulfment
[6]; liposomes
  liposome uptake by YFP airway epithelial cells in vivo: enhanced lipo some uptake
IC-21 cells
  corpse uptake by IC-21 cells: did not affect corpse uptake
LR73 cells [7]
  uptake of PtdSer containing liposomes by LR73 cells: enhanced the uptake of PtdSer containing liposomes
